{"source": "patent US8653298B2", "about": "“Biphenyl acetate, preparation and uses thereof” (Shijiazhuang Yiling Pharmaceutical Co., Ltd., priority 2006, dated 2014)", "key": {"female Kunming mouse": {"test_system": "female Kunming mouse", "assay": "analgesia, mice heating plate method", "assay_type": "in vivo", "conditions": "for pain record on hot plate (55±0.5° C.): 240 mg/kg", "description": "Pick the female Kunming mouse, each having the weight between 20 to 22 grams. At first, test their sensitive towards pain. Put the mouse on the hot plate with the temperature of 55±0.5° C., and calculate how much pain does the mouse has by determining how many times they lick their back leg. Eliminate the mice seem to like to jump and the mice has no respond for 30 seconds. Pick a total of 60 mice having sensitive to pain and divide them into 5 groups randomly. […] The dosage of biphenyl acetic ammonia butantriol salt is divided into low, medium, and high dosage, correspondingly to 4, 12, 36 mg/kg, and normal dosage ⅓, 1, 3 respectively. And there is a positive contrast group. […] On the other hand, the saline is injected into the vein in the contrast group. Use epilation to remove the hair of the back leg of the mouse. Record the painful of every mouse before giving drug, and record the painful after giving drug 1 hour. After the mouse licks its foot, remove the hot plate immediately. Do the same record again at the second and third hour after giving drug. Do the t inspect, and judge its effects on easing pain."}, "NIH mice [1]": {"test_system": "NIH mice", "assay": "twist reaction caused by glacial acetic acid", "conditions": "3-48 mg/kg", "quoted_text": "After testing, the 110 NIH mice are divided into eleven groups randomly, which means each group has 10 mice, and each of the mice has a weight between 15 and 17 grams. The numbers and dosage of the biphenyl acetic ammonia butantriol slat are 1, 2, 3, 4, 5 and 3, 6, 12, 24, 48 mg/kg respectively. The numbers and dosage of flurbiprofen axetil are 1, 2, 3, 4, 5, and 3, 6, 12, 24, 48 respectively also. The medicine and weight ratio is 0.1 ml medicine/10 g weight. Meanwhile, we give the same quantity of saline solution to the contrast group. After 30 minutes, the mixture solution is injected into the vein according to its weight ratio 0.1 ml liquid/10 gram weight for HAc painful."}, "[2]": {"assay": "stable test of the injection (influence, acceleration, long term)", "assay_type": "physicochemical", "text": "The purpose is to investigate the regular change of this product which has the influence of temperature, humidity, and light intensity, and offer producing, packaging, and transporting condition for this medicine. At the same time, the effective date is established by passing this testing. According to the Chinese pharmacopia appendix XI X C, second edition, 2005(the rule of medicine stability testing direction) and “The important stability item-list of bulk drug and pharmaceutical preparation” which is in “The researching directive rule of chemical medicine and therapeutic biological products” determines the important item-list, which includes gender character, PH value, relative materials, asepsis, thermal source, assay, and so on. The testing result is below: […] In other words, the quality of the product is very stable. […] In other words, the quality of the product is very stable. […] In other words, the quality of the product is very stable."}, "[3]": {"test_system": "2% red blood cell's suspending liquid", "assay": "hemolytic testing outside the body (visual)", "assay_type": "cell-based, rabbit", "conditions": "low concentration 0.63 mg/ml", "quoted_text": "Take 0.5 ml the biphenyl acetic ammonia butantriol salt solution and dilute it with 0.9 % NaCl solution (0.9 g/100 ml) to 6.25 ml.\nTake 2 ml the biphenyl acetic ammonia butantriol salt solution and dilute it with 0.9 % NACL (0.9 g/100 ml) solution to 6.0 ml.\nTake few milliliters of rabbit blood into a triangular flask and shake it for 10 minutes. Remove the fiber egg white, and get non-fiber blood. Separate the blood solution into few centrifuge tubes. Add ten times of 0.9% NaCl solution, well mixing, and centrifuge (1500 turns/minutes, 15 minutes) to remove the supernatant. Use 0.9% NaCl solution to wash the precipitation red blood two or three times until the supernatant is not red anymore. Use the red blood to mix the 0.9% NaCl solution to make 2% suspending liquid for test use.\nTake the same size of opening of 7 clean test tubes and number them. Add the 0.9% NaCl solution, the injection water, medicine, and the 2% suspending liquid followed by Table 9. After well mixing, put them in the temperature chamber at 37° C. Inspect them every 15 minutes. After 1 hour, inspect them every one hour for 3 hours.\nIf testing solution presents clearly red, no cellular residual under the tube, and few cellular residual, it can determines that haemolysis happens. If red cells all sink, and supernatant fluid presents no color, it can present that haemolysis doesn't happen. […]"}, "solubility testing": {"assay": "solubility testing", "assay_type": "physicochemical", "conditions": "for Conclusion (solubility): 25±2° C.", "description": "According to Chinese medicine book in 2005 edition, the preparation of biphenyl acetic ammonia butantriol salt is made by different solvent. […] At first, mill the biphenyl acetic ammonia butantriol salt into flour and weight it, and add solvent into the biphenyl acetic ammonia butantriol salt. Second, at 25±2° C., wave the mixer solution every 5 minutes for 30 seconds, and inspect the dissolve situation. Repeat three times and the result is illustrated in Table 1."}, "in vivo": {"assay": "in vivo", "conditions": "both, NIH, mouse, in vivo", "text": "(§1) A total amount of 40 NIH mice, 19-21 gram, (half of the mice are male and half of the mice are female), it is divided into two groups: medicine group and the contrast group. […] The contrast is given by the […] liquid. Investigation and record the poison effect on the mice and the amount of mice death."}, "NIH mice [4]": {"test_system": "NIH mice", "assay": "in vivo", "text": "as §1"}, "Kunming mouse": {"test_system": "Kunming mouse", "assay": "swelling of the mouse ear caused by dimethyl benzene", "conditions": "3-48 mg/kg", "excerpt": "Total numbers of 110 Kunming mice are used, male, 15-17 g, medical inspection for 3 days.\nAfter testing, the mice are divided into eleven groups randomly and each group contains 10 mice. The numbers and dosage of the biphenyl acetic ammonia butantriol slat are 1, 2, 3, 4, 5 and 3, 6, 12, 24, 48, respectively. The numbers and dosage of flurbiprofen axetil are 1, 2, 3, 4, 5, and 3, 6, 12, 24, 48 respectively. Use the dimethybenzene to make the mouse ear swelling, and use the mouse left ear as the contrast group. After 30 minutes, the mixing liquid is injected into the vein according to its weight ratio 0.1 ml liquid/10 gram weight. Use a punch, having the diameter of 8 mm, to punch the same hole in two different ears. Weight it by very high quality scale. Finally, the swelling ratio is: the weight of right ear plus the weight of left ear."}, "NIH mice [5]": {"test_system": "NIH mice", "assay": "test of stomach channel, oral administration", "conditions": "212 mg/kg oral, fasted 24 hours, stomach dissected after 48 hours", "description": "NIH mice are divided into two groups randomly. […] Dissect stomach after 48 hours. Use 10% methylene oxide. Cut the stomach along the curve of stomach, and calculate the percentage of an ulcer canker."}, "[6]": {"conditions": "solvent Acetone, 8.9 g in 150 ml"}, "[7]": {"conditions": "solvent Acetonitrile, 9.1 g in 150 ml"}, "[8]": {"conditions": "solvent Alcohol, 14.3 g in 10 ml"}, "[9]": {"conditions": "solvent Formamide, 0.2137 g in 6 ml"}, "[10]": {"conditions": "solvent Methanol, 0.1135 g in 3 ml"}, "[11]": {"conditions": "both, NIH, mouse, in vivo, 14 days"}}, "note": "“Also recorded” adds a separate entry of the source. Counter-ions that a name gives are not always drawn."}
{"smiles": "CC(=O)Oc1ccccc1C(=O)O", "note": "[Lysine Acetyl-salicylate]", "values": [{"measurement": "pain record on hot plate (55±0.5° C.)", "setting": "female Kunming mouse; 1 hour", "value": "31.08 ± 4.26"}, {"measurement": "pain record on hot plate (55±0.5° C.)", "setting": "female Kunming mouse; 2 hours", "value": "30.35 ± 3.29"}, {"measurement": "pain record on hot plate (55±0.5° C.)", "setting": "female Kunming mouse; 3 hours", "value": "28.16 ± 2.97"}]}
{"smiles": "O=C(O)Cc1ccc(-c2ccccc2)cc1", "note": "[biphenyl acetic ammonia butantriol salt]", "values": [{"measurement": "time which mouse is standing on the hot plate compared to the contrast group", "setting": "female Kunming mouse; first, second and third hour after giving drugs", "value": "significantly extends"}, {"measurement": "effect towards the mouse twisted caused by glacial acetic acid compared with flurbiprofen axetil injection", "setting": "NIH mice [1]", "value": "no significantly difference"}, {"measurement": "long term test: change of the product", "setting": "[2]; 25° C., relative humidity 25%, 3 months", "value": "no significantly change"}, {"measurement": "acceleration test: change of the product", "setting": "[2]; 40±2° C., relative humidity 75±5%, 3 months", "value": "no significantly change"}, {"measurement": "influence test: change of the product", "setting": "[2]; 60° C., relative humidity 92.5±5%, light intensity 4500±500 lx, 10 days", "value": "no significantly change"}, {"measurement": "blood absorbing reaction within 3 hours", "setting": "[3]", "value": "no blood absorbing reaction"}, {"measurement": "The dissolving condition", "setting": "solubility testing; [6]", "value": "Completely"}, {"measurement": "Conclusion (solubility)", "setting": "solubility testing; [6]", "value": "Undissolvable"}, {"measurement": "The dissolving condition", "setting": "solubility testing; [7]", "value": "Completely"}, {"measurement": "Conclusion (solubility)", "setting": "solubility testing; [7]", "value": "Undissolvable"}, {"measurement": "The dissolving condition", "setting": "solubility testing; [8]", "value": "Completely"}, {"measurement": "Conclusion (solubility)", "setting": "solubility testing; [8]", "value": "just a few dissolve; also recorded: Slightly"}, {"measurement": "The dissolving condition", "setting": "solubility testing; [9]", "value": "Completely"}, {"measurement": "Conclusion (solubility)", "setting": "solubility testing; [9]", "value": "Dissolved"}, {"measurement": "The dissolving condition", "setting": "solubility testing; [10]", "value": "Completely"}, {"measurement": "Conclusion (solubility)", "setting": "solubility testing; [10]", "value": "Dissolved"}, {"measurement": "The dissolving condition", "setting": "solubility testing; solvent Water, 14.1 g in 10 ml", "value": "Completely"}, {"measurement": "Conclusion (solubility)", "setting": "solubility testing; solvent Water, 14.1 g in 10 ml", "value": "just a few dissolve; also recorded: Slightly"}, {"measurement": "LD50 at 14 days", "setting": "in vivo; LD50", "value": "> 940", "unit": "mg/kg"}, {"measurement": "LD50 at 14 days", "setting": "in vivo; LD50 of the salt stated as biphenyl phenylacetic acid", "value": 589, "unit": "mg/kg"}, {"measurement": "mouse death", "setting": "NIH mice [4]; 940 mg/kg total for one day, 14 days after injection", "value": "no mouse went death"}, {"measurement": "maximum enduring quantity", "setting": "NIH mice [4]; [11]", "value": "over 940 mg/kg"}, {"measurement": "tolerance value", "setting": "NIH mice [4]; [11]", "value": 940, "unit": "mg/kg"}, {"measurement": "poison effect on the mice after injection", "setting": "NIH mice [4]; mouse, in vivo", "value": "barely to move"}, {"measurement": "effect towards the swelling ear caused by dimethybenzene compared with flurbiprofen axetil", "setting": "Kunming mouse", "value": "no significantly difference"}]}
{"smiles": "CC(=O)O.c1ccc(-c2ccccc2)cc1", "note": "[Biphenyl acetate]", "values": [{"measurement": "Number of ulcer animals/Sum of total animals", "setting": "NIH mice [5]", "value": "13/15"}]}
